Legend:
Assay type in all cases: binding
Xl64 [1] = target: T1, Xl64 (Xenopus laevis, UniProt Q9I910); test: UV/vis absorption after incubation and gel filtration; conditions: synthetic 8-HDF, 100 µM with 20 µM protein, on ice; secondary pocket, antenna chromophore; protein holds FAD
T1 construct: gene Xl64phr; recombinant, pET-28a(+), E. coli C41(DE3)/pLysS
T1 sequence (Q9I910 1-526): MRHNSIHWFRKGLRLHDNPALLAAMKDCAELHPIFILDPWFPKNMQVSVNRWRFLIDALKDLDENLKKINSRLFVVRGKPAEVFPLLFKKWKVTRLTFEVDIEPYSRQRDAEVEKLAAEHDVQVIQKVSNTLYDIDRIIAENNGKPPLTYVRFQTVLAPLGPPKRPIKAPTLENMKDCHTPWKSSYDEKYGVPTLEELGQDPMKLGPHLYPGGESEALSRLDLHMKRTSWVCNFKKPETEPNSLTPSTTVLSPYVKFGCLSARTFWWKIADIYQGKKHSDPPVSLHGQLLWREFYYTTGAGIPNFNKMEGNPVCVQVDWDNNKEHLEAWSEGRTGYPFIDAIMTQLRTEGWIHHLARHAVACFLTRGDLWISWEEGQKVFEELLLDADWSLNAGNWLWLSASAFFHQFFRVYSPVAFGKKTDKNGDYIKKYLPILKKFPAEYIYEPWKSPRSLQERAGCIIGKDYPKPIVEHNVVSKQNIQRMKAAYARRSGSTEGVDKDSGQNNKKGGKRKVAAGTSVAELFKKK

CraCRY [2] = target: T2, CraCRY (Chlamydomonas reinhardtii, UniProt A8J8W0); test: as above; conditions: synthetic 8-HDF, 100 µM with 20 µM protein, on ice; secondary pocket, antenna chromophore; protein holds FAD
T2 construct: gene CHLRE_06g278251v5; lacks C-terminal tail (497-595); His-tagged, pET-28a(+), E. coli BL21(DE3); TALON and heparin purified
T2 sequence (A8J8W0 1-496): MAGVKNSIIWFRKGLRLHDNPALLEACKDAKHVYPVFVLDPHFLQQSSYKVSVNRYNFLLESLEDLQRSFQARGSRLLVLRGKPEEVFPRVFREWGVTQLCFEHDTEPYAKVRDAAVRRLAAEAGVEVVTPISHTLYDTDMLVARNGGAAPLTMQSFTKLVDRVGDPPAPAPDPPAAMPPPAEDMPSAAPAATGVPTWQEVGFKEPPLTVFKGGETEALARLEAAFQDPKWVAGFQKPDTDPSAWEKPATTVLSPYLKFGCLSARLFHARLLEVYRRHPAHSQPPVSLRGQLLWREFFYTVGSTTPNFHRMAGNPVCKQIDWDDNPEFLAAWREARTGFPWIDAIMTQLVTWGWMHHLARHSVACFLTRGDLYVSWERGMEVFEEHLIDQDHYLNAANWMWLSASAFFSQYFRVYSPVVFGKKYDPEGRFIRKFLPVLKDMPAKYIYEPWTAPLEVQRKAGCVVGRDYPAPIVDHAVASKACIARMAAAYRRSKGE

Xl64 [3] = target: T1, Xl64; test: UV/vis spectroscopy of purified holoprotein; xanthine/xanthine oxidase redox titration; conditions: co-purified FAD; pH 7.0, Safranin T reference
CraCRY [4] = target: T2, CraCRY; test: as above; conditions: co-purified FAD; pH 7.0, Safranin T reference
At64 [5] = target: T3, At64 (Arabidopsis thaliana, UniProt O48652, DEL46-53); test: as above; conditions: At64-ΔExLoop, extended loop Ser46 to Pro53 deleted; co-purified FAD; pH 7.0, Safranin T reference
T3 construct: gene UVR3; recombinant, pET-28a(+), E. coli C41(DE3)/pLysS
T3 sequence (O48652 with tags, fused parts or gaps DEL46-53): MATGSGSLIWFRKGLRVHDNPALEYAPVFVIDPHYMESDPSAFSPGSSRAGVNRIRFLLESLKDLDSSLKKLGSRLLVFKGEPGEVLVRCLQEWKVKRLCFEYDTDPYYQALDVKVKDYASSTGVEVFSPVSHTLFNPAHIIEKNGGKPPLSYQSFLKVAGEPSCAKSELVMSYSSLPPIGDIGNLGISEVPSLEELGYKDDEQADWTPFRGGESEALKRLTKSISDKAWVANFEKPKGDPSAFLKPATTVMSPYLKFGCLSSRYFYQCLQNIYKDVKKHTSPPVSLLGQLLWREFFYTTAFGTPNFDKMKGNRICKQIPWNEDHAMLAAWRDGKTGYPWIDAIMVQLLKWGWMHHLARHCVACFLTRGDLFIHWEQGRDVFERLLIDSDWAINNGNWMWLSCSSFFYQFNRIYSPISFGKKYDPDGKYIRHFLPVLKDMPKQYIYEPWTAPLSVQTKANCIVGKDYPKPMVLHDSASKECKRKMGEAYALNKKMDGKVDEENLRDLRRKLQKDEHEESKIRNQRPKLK

At64 [6] = target: T4, At64 (Arabidopsis thaliana, UniProt O48652); test: as above; conditions: co-purified FAD; pH 7.0, Safranin T reference
T4 construct: gene UVR3; recombinant, pET-28a(+), E. coli C41(DE3)/pLysS
T4 sequence (O48652 20-556): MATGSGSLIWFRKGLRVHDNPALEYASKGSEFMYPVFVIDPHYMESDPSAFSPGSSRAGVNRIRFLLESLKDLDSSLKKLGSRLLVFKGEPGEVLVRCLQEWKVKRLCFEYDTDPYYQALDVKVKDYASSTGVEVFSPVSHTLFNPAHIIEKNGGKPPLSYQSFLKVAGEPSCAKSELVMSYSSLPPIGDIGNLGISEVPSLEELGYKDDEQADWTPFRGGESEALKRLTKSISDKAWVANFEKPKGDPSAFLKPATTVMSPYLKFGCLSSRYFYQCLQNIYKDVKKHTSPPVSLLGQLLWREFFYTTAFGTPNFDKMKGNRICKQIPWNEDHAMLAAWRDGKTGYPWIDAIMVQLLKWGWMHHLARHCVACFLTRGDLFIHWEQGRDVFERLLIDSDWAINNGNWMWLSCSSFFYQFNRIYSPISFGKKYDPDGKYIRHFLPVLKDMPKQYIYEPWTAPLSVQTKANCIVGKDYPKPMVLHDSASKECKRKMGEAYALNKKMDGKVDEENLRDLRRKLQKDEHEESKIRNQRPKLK

| Structure (SMILES) | absorption maximum of the complex (Xl64 [1]) [nm] | absorption maximum of the complex (CraCRY [2]) [nm] | UV/vis spectroscopy of purified holoprotein; xanthine/xanthine oxidase redox tit (Xl64 [3]) | UV/vis spectroscopy of purified holoprotein; xanthine/xanthine oxidase redox tit (CraCRY [4]) | UV/vis spectroscopy of purified holoprotein; xanthine/xanthine oxidase redox tit (At64 [5]) | UV/vis spectroscopy of purified holoprotein; xanthine/xanthine oxidase redox tit (At64 [6]) |
| --- | --- | --- | --- | --- | --- | --- |
| O=c1nc2n(C[C@H](O)[C@H](O)[C@H](O)CO)c3cc(O)ccc3cc-2c(=O)[nH]1 [8-HDF, 8-hydroxy-7,8-didemethyl-5-deazariboflavin] | 441 | 448 | – | – | – | – |
| Cc1cc2nc3c(=O)[nH]c(=O)nc-3n(C[C@H](O)[C@H](O)[C@H](O)COP(=O)(O)OP(=O)(O)OC[C@H]3O[C@@H](n4cnc5c(N)ncnc54)[C@H](O)[C@@H]3O)c2cc1C [FAD, flavin adenine dinucleotide] | – | – | the Em,FAD values of the tested proteins (Xl64, At64, and CraCRY) were identical | the Em,FAD values of the tested proteins (Xl64, At64, and CraCRY) were identical | the deletion of the extended loop did not affect the FAD binding site | the Em,FAD values of the tested proteins (Xl64, At64, and CraCRY) were identical |
